Results published in ChEMBL document CHEMBL3785025, “Focus on PAINS: false friends in the quest for selective anti-protozoal lead structures from Nature?” (Medchemcomm, 2016).
Converted amounts (≈) assume the structure as drawn.

What was measured:
[1] = system: Plasmodium falciparum; assay: Antiplasmodial activity against chloroquine-resistant Plasmodium falciparum FcB1/Colombia after 24 hrs by [3H]hypoxanthine incorporation assay; assay type: functional, organism-based
[2] = system: Trypanosoma brucei brucei; assay: Antitrypanosomal activity against Trypanosoma brucei brucei; assay type: functional, organism-based
[3] = system: Leishmania donovani; assay: Antileishmanial activity against Leishmania donovani MHOM/ET/67/HU3 after 5 days by Giemsa staining based microscopic analysis; assay type: functional, organism-based; conditions: MHOM/ET/67/HU3, 120 h
[4] = system: L6; assay: Cytotoxicity against rat L6 cells after 72 hrs by alamar blue staining based fluorescence analysis; assay type: functional, cell-based; conditions: L6, 72 h
[5] = molecular target: T1, Arginase-1 (Rattus norvegicus, UniProt P07824); assay: Inhibition of recombinant rat liver arginase expressed without histidine tail assessed as urea formation using L-arginine as substrate after 15 mins by Berthelot assay
T1 sequence (P07824 whole entry): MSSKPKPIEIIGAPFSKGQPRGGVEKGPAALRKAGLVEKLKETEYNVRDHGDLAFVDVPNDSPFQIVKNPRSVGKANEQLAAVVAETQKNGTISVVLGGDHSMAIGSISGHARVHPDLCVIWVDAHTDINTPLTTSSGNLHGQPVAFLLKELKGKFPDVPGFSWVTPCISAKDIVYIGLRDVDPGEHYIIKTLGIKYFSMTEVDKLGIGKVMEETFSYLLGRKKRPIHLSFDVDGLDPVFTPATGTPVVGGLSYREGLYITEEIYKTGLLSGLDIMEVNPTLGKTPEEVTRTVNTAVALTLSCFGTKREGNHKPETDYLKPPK

[6] = system: Leishmania donovani; assay: Antileishmanial activity against Leishmania donovani MHOM/ET/67/L82 after 72 hrs by Alamar blue dye based fluorescence analysis; assay type: functional, organism-based; conditions: MHOM/ET/67/L82, 72 h
[7] = system: Trypanosoma brucei rhodesiense; assay: Antitrypanosomal activity against Trypanosoma brucei rhodesiense STIB 900 after 72 hrs by alamar blue staining based fluorescence analysis; assay type: functional, organism-based; conditions: STIB 900, 72 h
[8] = system: Trypanosoma cruzi; assay: Antitrypanosomal activity against trypomastigote forms of Trypanosoma cruzi Tulahuen C2C4 infected in rat L6 cells after 96 hrs by photometric method; assay type: functional, organism-based; conditions: Tulahuen C2C4, L6, 96 h
[9] = system: Leishmania infantum; assay: Antileishmanial activity against Leishmania infantum MCAN/IR/07/Moheb-gh assessed as cell viability after 72 hrs by MTT assay; assay type: functional, organism-based
[10] = system: Leishmania tropica; assay: Antileishmanial activity against Leishmania tropica MHOM/IR/2002/Mash2 assessed as cell viability after 72 hrs by MTT assay; assay type: functional, organism-based; conditions: MHOM/IR/2002/Mash2, 72 h
[11] = Cmax in Wistar rat at 50 mg/kg administered as lipid nanoparticle suspension after 2 hrs by UPLC method; assay type: ADME, organism-based; parameters: dose 50 mg/kg; conditions: in vivo
[12] = Cmax in Wistar rat at 50 mg/kg after 2 hrs by UPLC method; assay type: ADME, organism-based; parameters: dose 50 mg/kg; conditions: in vivo
[13] = system: Leishmania major; assay: Antileishmanial activity against Leishmania major promastigotes; assay type: functional; conditions: read-out: LD50 (the source's name)
[14] = system: Plasma; assay: Plasma concentration in human at […], administered orally by HPLC method in presence of 20 mg piperine; assay type: ADME, cell-free; conditions: po
[15] = system: Plasmodium falciparum; assay: Antimalarial activity against chloroquine-sensitive Plasmodium falciparum 3D7 after 24 hrs by [3H]hypoxanthine labeling method; assay type: functional, organism-based
[16] = system: Trypanosoma brucei; assay: Antitrypanosomal activity against Trypanosoma brucei; assay type: functional, organism-based
[17] = Cytotoxicity against mouse J774.1 cells; assay type: cell-based
[18] = Cytotoxicity against HEK293T cells; assay type: cell-based; conditions: Homo sapiens, HEK-293T
[19] = system: Leishmania amazonensis; assay: Antileishmanial activity against amastigote Leishmania amazonensis relative to control; assay type: functional
[20] = system: Leishmania amazonensis; assay: Antileishmanial activity against amastigote Leishmania amazonensis; assay type: functional, organism-based
[21] = system: Plasmodium falciparum; assay: Antimalarial activity against chloroquine and pyrimethamine-resistant Plasmodium falciparum K1 infected in human red blood cells after 48 hrs by [3H]hypoxanthine incorporation assay; assay type: functional, organism-based
[22] = system: Trypanosoma cruzi; assay: Antitrypanosomal activity against trypomastigote forms of Trypanosoma cruzi Tulahuen C2C4 infected in rat L6 cells assessed as inhibition of growth after 96 hrs by inverted microscopy; assay type: functional, organism-based; conditions: Tulahuen C2C4, L6, 96 h
[23] = system: Leishmania donovani; assay: Antileishmanial activity against Leishmania donovani MHOM/ET/67/L82 after 72 hrs by resazurin dye based fluorescence analysis; assay type: functional, organism-based; conditions: MHOM/ET/67/L82, 72 h
[24] = system: Plasmodium falciparum; assay: Antimalarial activity against chloroquine-sensitive Plasmodium falciparum 3D7 after 48 hrs by ethidium bromide staining based fluorometric method; assay type: functional, organism-based; conditions: 3D7, 48 h
[25] = Cytotoxicity against human U937 cells after 72 hrs by MTT assay; assay type: functional; conditions: U-937, 72 h, read-out: LD50 (the source's name)
[26] = system: Leishmania major; assay: Antileishmanial activity against promastigote Leishmania major MHOM/IL/67/LRC-L137 assessed as growth inhibition after 2 hrs by [3H]-thymidine incorporation assay; assay type: functional, organism-based
[27] = system: Leishmania donovani; assay: Antileishmanial activity against […] Leishmania donovani MHOM/KE/85/NLB439 in human peripheral blood monocyte derived macrophages assessed as growth inhibition after 24 hrs by [3H]-thymidine incorporation assay; assay type: functional, organism-based

With `O=CO[C@@H](CCc1ccc(O)c(O)c1)C[C@H](CCc1ccc(O)c(O)c1)O[C@@H]1O[C@H](CO)[C@@H](O)[C@H](O)[C@H]1O` as the compound, how does the IC50 [1] read?
Its IC50 is greater than 20 µM.

And the IC50 [2]?
The IC50 was 25 µM.

And the IC50 [3]?
The IC50 was 30 µM.

For `OC[C@H]1O[C@@H](O[C@@H](CCc2ccc(O)c(O)c2)C[C@@H](O)CCc2ccc(O)c(O)c2)[C@H](O)[C@@H](O)[C@@H]1O`, which IC50 [1] is on record?
Its IC50 is greater than 20 µM.

What about the IC50 [2] of the same compound?
The IC50 was 25 µM.

And the IC50 [3]?
The IC50 was 30 µM.

Which results are given for `COc1ccc(CC[C@@H](C[C@H](CCc2ccc(O)c(O)c2)O[C@@H]2O[C@H](CO)[C@@H](O)[C@H](O)[C@H]2O)OC=O)cc1`?
IC50 [1]: > 20 µM; IC50 [2]: 25 µM; IC50 [3]: 30 µM

What does the source list for `O=c1cc(-c2ccc(O)c(O)c2)oc2cc(O)cc(O)c12` [LUTEOLIN]?
IC50 [4]: 9.4 µg/mL; IC50 [5]: 9 µM; IC50 [6]: 0.8 µg/mL (≈ 2.79 µM); IC50 [7]: 3.7 µg/mL; IC50 [8]: 21.4 µg/mL (≈ 74.8 µM)

With `C[C@@H]1O[C@@H](Oc2c(-c3ccc(O)c(O)c3)oc3cc(O)cc(O)c3c2=O)[C@H](O)[C@H](O)[C@H]1O` [QUERCITRIN] as the compound, how does the IC50 [4] read?
Its IC50 is greater than 90 µg/mL.

And the IC50 [6]?
Its IC50 is 17.7 µg/mL (≈ 39.5 µM).

And the IC50 [7]?
The IC50 was 27.9 µg/mL.

And the IC50 [8]?
Its IC50 is greater than 30 µg/mL.

What does the source list for `CC1=CC(=O)C(C(C)C)=CC1=O` [THYMOQUINONE]?
IC50 [9]: 1.47 µg/mL (≈ 8.95 µM); IC50 [10]: 1.16 µg/mL (≈ 7.06 µM); Cmax [11]: 900 ng/mL; Cmax [12]: 400 ng/mL

For `COc1cc(/C=C/C(=O)CC(=O)/C=C/c2ccc(O)c(OC)c2)ccc1O` [CURCUMIN], which LC50 [13] is on record?
Its LC50 is 37.6 µM.

What about the Cp [14] of the same compound?
The Cp was 180 ng/mL.

And the IC50 [15]?
The IC50 was 25 µM.

And the IC50 [16]?
The IC50 was 3.6 µM.

What about the LC50 ([2]; read-out: LD50 (the source's name)) of the same compound?
The LC50 was 46.5 µM.

And the IC50 [17]?
The IC50 was 31 µM.

What about the IC50 [18] of the same compound?
The IC50 was 15.2 µM.

For `O=c1c(O)c(-c2ccc(O)c(O)c2)oc2cc(O)ccc12` [FISETIN], which IC50 [4] is on record?
The IC50 was 38.5 µg/mL.

What about the IC50 [5] of the same compound?
Its IC50 is 1.4 µM.

And the IC50 [6]?
The IC50 was 0.6 µg/mL (≈ 2.1 µM).

What about the IC50 [7] of the same compound?
The IC50 was 3.3 µg/mL.

What about the IC50 [8] of the same compound?
The IC50 was greater than 30 µg/mL.

Which results are given for `O=c1c(O[C@@H]2O[C@H](CO)[C@@H](O)[C@H](O)[C@H]2O)c(-c2ccc(O)c(O)c2)oc2cc(O)cc(O)c12` [ISOQUERCETIN]?
Activity [19]: 40%; IC50 [20]: 0.78 µg/mL (≈ 1.68 µM)

For `O=c1cc(-c2ccc(O)cc2)oc2cc(O)cc(O)c12` [APIGENIN], which IC50 [4] is on record?
The IC50 was 18.1 µg/mL.

And the IC50 [6]?
Its IC50 is 1.9 µg/mL (≈ 7.03 µM).

And the IC50 [7]?
Its IC50 is 5.1 µg/mL.

And the IC50 [8]?
The IC50 was 21.8 µg/mL (≈ 80.7 µM).

Which IC50 [4] does the source give for `C/C=C(\C)CO[C@@H]1CC([C@@H](O)[C@]2(C)C=C3OC(=O)C4=C3[C@H]2[C@H]2OC(=O)[C@H](C)[C@@H]2[C@H](OC/C(C)=C/C)C4)=C2C(=O)C=C(C)[C@@H]2[C@H]2OC(=O)[C@H](C)[C@@H]21` here?
The IC50 was 16.2 µM.

What about the IC50 [21] of the same compound?
The IC50 was 2 µM.

What about the IC50 [22] of the same compound?
Its IC50 is 30.3 µM.

And the IC50 [7]?
The IC50 was 6.2 µM.

And the IC50 [23]?
The IC50 was 10.2 µM.

Which IC50 [6] does the source give for `O=c1c(O)c(-c2ccc(O)c(O)c2)oc2cc(O)cc(O)c12` [QUERCETIN] here?
The IC50 was 1 µg/mL (≈ 3.31 µM).

And the IC50 [7]?
Its IC50 is 8.3 µg/mL.

And the IC50 [8]?
The IC50 was greater than 30 µg/mL.

Which IC50 [24] does the source give for `CC(C)=CCc1c(O)c(O)c(O)c2c(=O)c3c(CC=C(C)C)c(O)c(O)cc3oc12` here?
The IC50 was 12.4 µM.

And the CC50 [25]?
Its CC50 is 263 µM.

With `C=CC(C)(C)c1cc(/C=C/C(=O)c2ccc(O)cc2)c(OC)cc1O` [LICOAGROCHACONE A] as the compound, how does the IC50 [26] read?
Its IC50 is 7.2 µM.

What about the IC50 [27] of the same compound?
The IC50 was 0.9 µM.

For `COc1ccc(CC[C@H](O)C[C@H](CCc2ccc(O)c(O)c2)O[C@@H]2O[C@H](CO)[C@@H](O)[C@H](O)[C@H]2O)cc1`, which IC50 [1] is on record?
The IC50 was greater than 20 µM.

And the IC50 [2]?
Its IC50 is greater than 100 µM.

What about the IC50 [3] of the same compound?
The IC50 was 30 µM.
